Measured values as given in patent US6596712B2, “Treatment of carcinomas using squalamine in combination with other anti-cancer agents or modalities” (Genaera Corporation, priority 1996, dated 2003).

How the values were obtained:
[1] = tested on: 9L gliosarcoma tumors (9L glioma); assay: 9L glioma flank study; format: in vivo, Fisher 344 rats; conditions: Day 25 or 26 after implantation; treatment from Day 5 per Table 4
Procedure: Four groups of rats (twenty total Fisher 344 rats, 200 g) were given s.q. transplants of 1 mm3 9L gliosarcoma tumors (9L glioma) on Day 0. The tumors were implanted in the rat flanks to avoid complications relating to adequate brain levels of squalamine. Randomization and treatment began on Day 5 according to the following scheme:
On Day 25 or 26 after tumor implantation, the tumor size was measured directly. The tumor size (i.e., its volume “V”) was estimated based on volumetric calculations determined from the measured length (“L”), width (“W”), and height (“H”) of the tumor (Vtumor spheroid˜0.5 ×L×W×H). The tumor volumes shown in Table 5 represent the mean tumor volumes for each treatment group for those animals that survived to the end of the experiment.

[2] = tested on: Calu-6; assay: Calu-6 lung tumor xenograft with carboplatin; format: in vivo, nude BALBc mice
Procedure: (§1) About 5×10^6 cells from each of two human lung tumor lines, H460 (a rapidly proliferating large cell carcinoma cell line, ATCC HTB-177) and Calu-6 (an anaplastic carcinoma, ATCC HTB-56), were inoculated subcutaneously in the right foreleg of nude BALBc mice. Once tumors were visible (3-5 days) with a mean volume of approximately 50-80 mm^3, mice were treated intraperitoneally with 60 mg/kg carboplatin (single dose) or 20 mg/kg/squalamine (once daily for 5 days) or a combination of carboplatin and squalamine. There were 8 mice per group. Tumor growth inhibition was scored by quantifying the size of tumors once control tumors reached a size of 1.0 gram and determining the ratio of mean treated tumor size to mean control tumor size (T/C). Tumor growth inhibition was then scored as 100% x [1-(T/C)]. A separate antitumor activity variable, tumor growth delay, was scored for the tumors by determining the length of time it required for the mean tumor size in a treatment group to reach a size of 500 mm^3 (B. A. Teicher et al., Anticancer Research 18, 2567-2574 (1998)). The tumor growth inhibition seen with carboplatin plus squalamine was greater than that seen with carboplatin or squalamine alone. The relative inactivity of squalamine as a single agent by this assay endpoint supports the idea that squalamine is synergistic with carboplatin in the inhibition of these two human lung tumor xenografts. Similarly, it was determined that squalamine enhanced the tumor growth delay caused by carboplatin by an enhancement factor of >2.3 (Table 7).

[3] = tested on: H460; assay: H460 lung tumor xenograft with carboplatin; format: in vivo, nude BALBc mice
Procedure: as §1

[4] = tested on: murine Lewis lung adenocarcinoma; assay: Lung metastases of subcutaneous Lewis lung carcinoma; format: in vivo, C57BL/6 mice; conditions: day 20; squalamine 20 mg/kg/day s.c.; cyclophosphamide 125 mg/kg i.p. days 7, 9, 11; cisplatin 10 mg/kg i.p. day 7
Procedure: The murine Lewis lung adenocarcinoma was implanted subcutaneously in the hind-leg of male C57BL/6 mice and allowed to grow for one week. Groups of mice were then left untreated or treated with either squalamine (20 mg/kg/day, s.c.), cyclophosphamide (125 mg/kg, i.p. on days 7, 9 and 11), cisplatin (10 mg/kg, i.p. on day 7), the combination of squalamine and cyclophosphamide, or the combination of squalamine and cisplatin. On day 20, the animals were sacrificed, and the mean number of lung metastases were determined for each group.

[5] = tested on: parental 2008 cell line; assay: Human ovarian tumor 2008 xenograft with cisplatin; format: in vivo, female Swiss nude mice; conditions: cisplatin single dose 4 mg/kg, squalamine 2 mg/kg, days 1-10
Procedure: Human ovarian tumor cells were injected subcutaneously (5×10^7 cells per animal) in the mid-back region of female Swiss nude mice. The human ovarian tumors were either the parental 2008 cell line (cf. R. J. Pietras et al., Oncogene 9, 1829-1838 (1994)) or a transfected variant overexpressing the Her-2/neu receptor. The overexpression of the Her-2/neu receptor is considered to make the resulting xenograft tumors more angiogenic and less responsive to chemotherapy. After one week, animals were randomized to groups receiving no treatment (controls), a single dose of cisplatin (4 mg/kg), daily treatment with squalamine (2 mg/kg, days 1-10) or cisplatin plus squalamine. The growth of tumors was then scored on day 28 following initiation of chemotherapy. The results were very similar with the parental 2008 tumor and the transfected variant overexpressing the Her-2/neu receptor. […] In this xenograft model, the [day 28 mean treated tumor weight increase divided by the day 28 mean control tumor weight increase (T/C)] x 100% was subtracted from 100% to give the tumor growth inhibition (TGI) value for each group.

[6] = tested on: NHE1, NHE2, NHE3; conditions: FIG. 4; cited from earlier work
[7] = tested on: human MX-1 breast cancer line; format: in vivo; conditions: single 200 mg/kg dose on day 14
Procedure: These documents each are entirely incorporated herein by reference. Squalamine was examined as adjunctive therapy following a single 200 mg/kg dose of cyclophosphamide. The cyclophosphamide was injected on day 14 following implantation of the tumor, at a time when the tumors measured 65-125 μl. […] The animals were then randomized to three treatment arms (each n=27): vehicle dosing only (Intralipid); squalamine given 10 mg/kg/day in Intralipid; and squalamine given 20 mg/kg/day in Intralipid for five days a week. Animals whose tumors exceeded 2 grams at any time during the experiment were euthanized. The experiment was continued for 90 days after initiating squalamine treatment to ensure that only mice experiencing long-term cures were still alive.

[8] = tested on: LNCaP cells; assay: LNCaP cell growth in vitro ([3H]-thymidine incorporation); format: cell-based, human; conditions: media containing serum
Procedure: The anti-proliferative effect of squalamine was evaluated in tissue culture by both crystal violet staining and [^3H]-thymidine incorporation, on the LNCaP/C4-2 human prostate cancer progression model. Developed by applicants' laboratory, this lineage-derived cell line recapitulates the progression of human neoplastic prostate disease from an androgen-dependent and minimally metastatic condition (LNCaP cells) to an androgen-independent (defined as being able to proliferate in castrate hosts) and highly aggressive state (C4-2 subline).
In vitro experiments were also conducted with the LNCAP cell line in which cell proliferation as judged by [3H]-thymidine uptake was determined. LNCaP cells were maintained as previously described (cf. J. T. Hsieh et al., Cancer Research 53, 2852-2857 (1993)). Cells were exposed to 20 ng/mL vascular endothelial growth factor (VEGF), 20 μg/mL squalamine or a combination of VEGF and squalamine. […] As a consequence, the mechanism underlying the effectiveness of squalamine treatment of the LNCaP tumor in vivo may under certain conditions also involve direct inhibition of tumor cell growth and/or induction of tumor cell death.

[9] = carboplatin 60 mg/kg i.p. single dose, squalamine 20 mg/kg once daily for 5 days
[10] = time for mean tumor size to reach 500 mm^3

In the case of `O=NN(CCCl)C(=O)NCCCl` [BCNU, 1,3-Bis(2-chloroethyl)-1-nitrosourea, reference compound], the “% Reduction (based on control volume)” value [1] is reported as 86.1% and the “Mean Tumor volume” value [1] is reported as 2,547 mm^3.

In the case of `N.N.O=C([O-])C1(C(=O)[O-])CCC1.[Pt+2]` [Carboplatin, carboplatin], the “Tumor Growth Inhibition (T/C)” value [2, 9] is reported as 23%, the “Tumor Growth Delay” value [2, 10] is reported as 2.5 and the “Tumor Growth Inhibition (T/C)” value [3, 9] is reported as 50%. The “Tumor Growth Delay” value [3, 10] was 2.9.

For `N.N.[Cl][Pt][Cl]` [Cisplatin, cis-Diamminedichloroplatinum, reference compound], the “mean number of lung metastases” value [4] was “reduced the number of metastases”, the “Day 28 Mean Tumor Size” value [5] was 5108 mm^3 and the “Tumor Growth Inhibition (TGI) Index” value ([5]; day 28) was 18%.

For `N=C(N)NC(=O)c1nc(Cl)c(N)nc1N` [amiloride], the NHE isoform selectivity [6] is given as “specifically act against NHE1 over NHE2 or NHE3”.

With `O=P1(N(CCCl)CCCl)NCCCO1` (centres unmarked) [cyclophosphamide, N,N-Bis-(2-chloroethyl)-N′-(3-hydroxypropyl)phosphordiamidic acid cyclic ester monohydrate, reference compound] the tumor regression [7] was “partial regression in all animals and complete regression in a small fraction of the animals” and the “mean number of lung metastases” value [4] was “reduced the number of metastases”.

In the case of VEGF, the “Percent of Control [3H]-Thymidine Uptake” value ([8]; 20 ng/mL VEGF and/or 20 μg/mL squalamine, 24 hours) is reported as 84% and the “effect on cell growth alone” value ([8]; 20 ng/mL VEGF or 20 μg/mL squalamine) is reported as “minimal effects on cell growth”.
